Results taken from PMC5951806, “Rapid labelling and covalent inhibition of intracellular native proteins using ligand-directed N-acyl-N-alkyl sulfonamide” (Nature Communications, 2018).

How the values were obtained:
Experiment in all cases: TMT LC-MSMS of 11-labelled proteins
Assay type in all cases: cell-based
[1] = molecular target: protein MAL2 (MAL2) (Homo sapiens, UniProt Q969L2)
Text: (§1) Supplement 41467_2018_4343_MOESM4_ESM.xlsx, sheet "Exp3" | column: Abundance Ratio: (11) / (11 with PU-H71); Abundance Ratio: (11) / (DMSO); Abundances (Grouped): 11; Abundances (Grouped): 11 with PU-H71

[2] = molecular target: Dolichyl-diphosphooligosaccharide--protein glycosyltransferase subunit 1 (RPN1) (Homo sapiens, UniProt P04843)
Text: as §1

[3] = molecular target: Transferrin receptor protein 1 (TFRC) (Homo sapiens, UniProt P02786)
[4] = molecular target: Protein disulfide-isomerase (P4HB) (Homo sapiens, UniProt P07237)
[5] = molecular target: Desmoplakin (DSP) (Homo sapiens, UniProt P15924)
[6] = molecular target: T-complex protein 1 subunit theta (CCT8) (Homo sapiens, UniProt P50990); details: sheet Exp1, SKBR3 cells
[7] = sheet Exp1, SKBR3 cells, 11 0.5 µM 3 h vs DMSO
[8] = sheet Exp1, SKBR3 cells, 11 0.5 µM 3 h vs with PU-H71 10 µM
[9] = sheet Merged, SKBR3 cells, 11 0.5 µM 3 h vs DMSO
[10] = sheet Merged, SKBR3 cells, 11 0.5 µM 3 h vs with PU-H71 10 µM

Chain of Dolichyl-diphosphooligosaccharide--protein glycosyltransferase subunit 1 (RPN1) (P04843 24-607): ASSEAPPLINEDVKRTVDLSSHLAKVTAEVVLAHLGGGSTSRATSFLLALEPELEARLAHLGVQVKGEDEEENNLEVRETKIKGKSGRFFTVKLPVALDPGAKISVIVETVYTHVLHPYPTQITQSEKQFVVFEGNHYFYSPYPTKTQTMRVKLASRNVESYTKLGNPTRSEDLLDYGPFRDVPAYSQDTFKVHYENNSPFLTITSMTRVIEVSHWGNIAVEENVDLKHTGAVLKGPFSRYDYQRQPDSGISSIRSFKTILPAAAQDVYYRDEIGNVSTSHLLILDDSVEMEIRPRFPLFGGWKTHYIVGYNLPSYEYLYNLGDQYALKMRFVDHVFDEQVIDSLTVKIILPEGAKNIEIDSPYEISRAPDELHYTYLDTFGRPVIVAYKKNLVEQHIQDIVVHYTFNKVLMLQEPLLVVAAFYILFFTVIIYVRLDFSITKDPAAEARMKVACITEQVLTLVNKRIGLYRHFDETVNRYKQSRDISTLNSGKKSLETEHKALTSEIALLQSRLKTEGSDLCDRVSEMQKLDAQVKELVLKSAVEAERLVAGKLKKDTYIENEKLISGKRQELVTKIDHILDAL
Chain of Dolichyl-diphosphooligosaccharide--protein glycosyltransferase subunit 1 (RPN1) (P39656 43-456 partner): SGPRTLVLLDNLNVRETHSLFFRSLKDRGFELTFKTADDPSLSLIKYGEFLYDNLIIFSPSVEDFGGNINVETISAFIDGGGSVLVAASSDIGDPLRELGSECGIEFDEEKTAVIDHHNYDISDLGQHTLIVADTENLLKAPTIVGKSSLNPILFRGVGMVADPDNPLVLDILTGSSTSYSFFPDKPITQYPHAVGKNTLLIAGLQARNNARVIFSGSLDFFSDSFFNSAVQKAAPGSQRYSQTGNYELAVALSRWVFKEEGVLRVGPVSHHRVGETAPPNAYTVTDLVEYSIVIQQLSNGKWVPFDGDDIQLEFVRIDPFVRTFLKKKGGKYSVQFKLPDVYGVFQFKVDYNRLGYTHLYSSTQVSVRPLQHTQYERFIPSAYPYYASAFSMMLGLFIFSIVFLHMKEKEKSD
Chain of Dolichyl-diphosphooligosaccharide--protein glycosyltransferase subunit 1 (RPN1) (P04844 23-631 partner): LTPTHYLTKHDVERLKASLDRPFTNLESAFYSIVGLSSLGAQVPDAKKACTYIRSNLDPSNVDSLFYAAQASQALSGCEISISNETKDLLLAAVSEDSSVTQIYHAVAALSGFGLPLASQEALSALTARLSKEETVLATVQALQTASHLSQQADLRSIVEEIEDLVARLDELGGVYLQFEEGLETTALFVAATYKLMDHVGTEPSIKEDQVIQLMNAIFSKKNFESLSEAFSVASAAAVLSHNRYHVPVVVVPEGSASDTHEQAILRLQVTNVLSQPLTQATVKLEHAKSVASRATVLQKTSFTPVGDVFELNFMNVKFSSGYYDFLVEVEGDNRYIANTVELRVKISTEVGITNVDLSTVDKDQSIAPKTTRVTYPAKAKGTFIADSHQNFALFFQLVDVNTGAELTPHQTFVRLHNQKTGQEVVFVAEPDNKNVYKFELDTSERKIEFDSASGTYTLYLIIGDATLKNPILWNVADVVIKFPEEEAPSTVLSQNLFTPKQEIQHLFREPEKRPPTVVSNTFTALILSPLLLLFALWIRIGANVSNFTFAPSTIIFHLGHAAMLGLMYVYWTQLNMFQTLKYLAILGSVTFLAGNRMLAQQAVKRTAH
Chain of Dolichyl-diphosphooligosaccharide--protein glycosyltransferase subunit 1 (RPN1) (P61803 whole entry partner): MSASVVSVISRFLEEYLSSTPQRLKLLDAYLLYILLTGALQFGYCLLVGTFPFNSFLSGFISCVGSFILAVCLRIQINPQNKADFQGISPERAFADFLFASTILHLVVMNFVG
Chain of Dolichyl-diphosphooligosaccharide--protein glycosyltransferase subunit 1 (RPN1) (P61165 whole entry partner): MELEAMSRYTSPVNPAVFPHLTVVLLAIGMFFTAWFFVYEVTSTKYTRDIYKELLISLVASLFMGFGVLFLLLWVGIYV
Chain of Dolichyl-diphosphooligosaccharide--protein glycosyltransferase subunit 1 (RPN1) (P0C6T2 whole entry partner): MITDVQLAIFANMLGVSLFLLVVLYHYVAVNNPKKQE
Chain of Protein disulfide-isomerase (P4HB) (P07237 18-508): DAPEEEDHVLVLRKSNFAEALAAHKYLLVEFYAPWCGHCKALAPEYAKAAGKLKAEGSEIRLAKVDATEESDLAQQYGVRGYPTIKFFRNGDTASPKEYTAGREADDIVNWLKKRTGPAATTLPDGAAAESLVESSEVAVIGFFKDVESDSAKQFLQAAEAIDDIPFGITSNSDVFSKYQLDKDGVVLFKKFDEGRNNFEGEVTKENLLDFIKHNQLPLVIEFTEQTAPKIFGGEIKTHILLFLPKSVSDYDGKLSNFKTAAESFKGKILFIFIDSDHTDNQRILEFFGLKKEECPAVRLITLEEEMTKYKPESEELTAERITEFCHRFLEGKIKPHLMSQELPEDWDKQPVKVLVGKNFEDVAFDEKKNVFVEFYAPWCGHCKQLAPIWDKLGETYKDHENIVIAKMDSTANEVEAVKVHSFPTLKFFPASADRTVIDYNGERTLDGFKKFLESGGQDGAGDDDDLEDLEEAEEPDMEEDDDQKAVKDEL
Chain of Transferrin receptor protein 1 (TFRC) (P02786 whole entry): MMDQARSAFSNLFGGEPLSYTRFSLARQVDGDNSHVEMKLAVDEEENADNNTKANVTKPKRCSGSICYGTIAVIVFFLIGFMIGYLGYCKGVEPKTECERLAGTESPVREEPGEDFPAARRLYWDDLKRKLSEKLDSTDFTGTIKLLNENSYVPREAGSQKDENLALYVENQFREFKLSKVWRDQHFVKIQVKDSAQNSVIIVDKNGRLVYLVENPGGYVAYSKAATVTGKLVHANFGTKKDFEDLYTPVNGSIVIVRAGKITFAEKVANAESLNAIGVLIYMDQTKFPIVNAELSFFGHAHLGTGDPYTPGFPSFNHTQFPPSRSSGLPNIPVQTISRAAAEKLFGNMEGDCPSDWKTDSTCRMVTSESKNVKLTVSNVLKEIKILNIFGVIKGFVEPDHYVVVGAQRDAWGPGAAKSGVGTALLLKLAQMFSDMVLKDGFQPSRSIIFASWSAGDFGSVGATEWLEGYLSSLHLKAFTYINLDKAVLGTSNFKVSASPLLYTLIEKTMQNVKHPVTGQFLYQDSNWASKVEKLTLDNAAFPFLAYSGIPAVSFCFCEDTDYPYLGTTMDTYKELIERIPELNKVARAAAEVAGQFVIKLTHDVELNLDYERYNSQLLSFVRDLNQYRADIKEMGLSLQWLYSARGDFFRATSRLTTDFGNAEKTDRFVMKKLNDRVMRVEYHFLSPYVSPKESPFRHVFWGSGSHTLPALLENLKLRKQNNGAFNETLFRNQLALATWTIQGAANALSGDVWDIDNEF
Chain of protein MAL2 (MAL2) (Q969L2 whole entry): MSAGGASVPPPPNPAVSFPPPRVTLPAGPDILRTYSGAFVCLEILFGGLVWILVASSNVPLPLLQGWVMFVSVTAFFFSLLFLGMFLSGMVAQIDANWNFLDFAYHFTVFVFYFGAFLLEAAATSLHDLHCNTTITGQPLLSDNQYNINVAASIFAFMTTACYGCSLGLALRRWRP

CC(=O)Oc1ccc2c(c1)Oc1cc(OC(C)=O)ccc1C21OC(=O)c2cc(C(=O)NCCOCCOCCNC(=O)CCCC(=O)N(CC#N)S(=O)(=O)c3ccc(C(=O)NCCCn4c(Sc5cc6c(cc5I)OCO6)nc5c(N)ncnc54)cc3)ccc21 [compound 11]
Abundance Ratio: (11) / (11 with PU-H71) ([1]; Exp3): 0.751
Abundance Ratio: (11) / (DMSO) ([1]; Exp3): 5.099
Abundances (Grouped): 11 ([1]; Exp3): 71.9
Abundances (Grouped): 11 with PU-H71 ([1]; Exp3, with PU-H71): 95.8
Abundance Ratio: (11) / (11 with PU-H71) ([2]; Exp3): 0.849
Abundance Ratio: (11) / (DMSO) ([2]; Exp3): 2.221
Abundances (Grouped): 11 ([2]; Exp3): 38.2
Abundances (Grouped): 11 with PU-H71 ([2]; Exp3, with PU-H71): 45
Abundance Ratio: (11) / (DMSO) [3, 7]: 1.5
Abundance Ratio: (11) / (11 with PU-H71) [3, 8]: 0.917
Abundance Ratio: (11) / (11 with PU-H71) ([3]; sheet Exp2, TFRC): 1.036
Abundance Ratio: (11) / (DMSO) ([3]; sheet Exp2, TFRC): 2.96
Abundances (Grouped): 11 ([3]; sheet Exp2, TFRC): 95.6
Abundances (Grouped): 11 with PU-H71 ([3]; sheet Exp2, TFRC, with PU-H71): 92.3
Abundance Ratio: (11) / (DMSO) [3, 9]: 2.107
Abundance Ratio: (11) / (11 with PU-H71) [3, 10]: 0.975
Abundance Ratio: (11) / (11 with PU-H71) ([4]; Exp3, P4HB): 0.934
Abundance Ratio: (11) / (DMSO) ([4]; Exp3, P4HB): 3.442
Abundances (Grouped): 11 ([4]; Exp3, P4HB): 191.7
Abundances (Grouped): 11 with PU-H71 ([4]; Exp3, P4HB): 205.3
Abundance Ratio: (11) / (DMSO) [4, 7]: 2.885
Abundance Ratio: (11) / (11 with PU-H71) [4, 8]: 0.887
Abundance Ratio: (11) / (11 with PU-H71) ([4]; sheet Exp2, P4HB): 0.87
Abundance Ratio: (11) / (DMSO) ([4]; sheet Exp2, P4HB): 2.206
Abundances (Grouped): 11 ([4]; sheet Exp2, P4HB): 186
Abundances (Grouped): 11 with PU-H71 ([4]; sheet Exp2, P4HB): 213.9
Abundance Ratio: (11) / (DMSO) [4, 9]: 2.274
Abundance Ratio: (11) / (11 with PU-H71) [4, 10]: 0.896
Abundance Ratio: (11) / (11 with PU-H71) ([5]; Exp3, DSP): 0.922
Abundance Ratio: (11) / (DMSO) ([5]; Exp3, DSP): 1.358
Abundances (Grouped): 11 ([5]; Exp3, DSP): 44.8
Abundances (Grouped): 11 with PU-H71 ([5]; Exp3, DSP): 48.6
Abundance Ratio: (11) / (11 with PU-H71) ([5]; sheet Exp2, DSP): 1.054
Abundance Ratio: (11) / (DMSO) ([5]; sheet Exp2, DSP): 1.067
Abundances (Grouped): 11 ([5]; sheet Exp2, DSP): 43.1
Abundances (Grouped): 11 with PU-H71 ([5]; sheet Exp2, DSP): 40.9
Abundance Ratio: (11) / (DMSO) [5, 9]: 1.203
Abundance Ratio: (11) / (11 with PU-H71) [5, 10]: 0.986
Abundance Ratio: (11) / (DMSO) ([6]; 11 0.5 µM 3 h vs DMSO): 2.74
Abundance Ratio: (11) / (11 with PU-H71) ([6]; 11 0.5 µM 3 h vs with PU-H71 10 µM): 0.821
